The record followed here is patent US20220274973A1, “Methods And Compositions For Treating Sickle Cell Disease With A Ferroportin Inhibitor (VIT-2763)” (Vifor (International) AG, priority 2019, published 2022).

This series is described as follows: Rodent PK studies, oral dosing. The format is in vivo.

With `O=C(NCc1ncccc1F)c1coc(CCNCCc2nc3ccccc3[nH]2)n1` [Compound 127], the systemic availability entry is reported as “systemically available”.
